Measurements from PMC7918738, “Microtubule Destabilizing Sulfonamides as an Alternative to Taxane-Based Chemotherapy” (International Journal of Molecular Sciences, 2021).
pIC50: −log10 of the molar value. Values joined by “and” are separate entries in the source; they are usually repeats but may differ in a detail not shown here. Identical values can stand only once.

Columns and labels:
HeLa cells = assay: Annexin V-FITC/PI cell death quantification in HeLa; format: cell-based, human; conditions: 38 600 nM, 42 50 nM, 45 400 nM
Experimental: (§1) To determine whether the cytotoxic/antiproliferative effect of the MDS was due to apoptosis induction, cells were treated with variable concentrations of the drug for 72 h or 6 days, stained with Annexin V-FITC (AnV) and propidium iodide (PI), and analyzed by flow cytometry. Double negative cells (AnV^−/PI^−) were classified as live cells (L), cells positive for AnV and negative for PI (AnV^+/PI^−) were considered in Early Apoptosis (EA), cells negative for AnV and positive for PI (AnV^−/PI^+) were considered necrotic (N), and double-positive cells (AnV^+/PI^+) as Late Apoptosis (LA). In all cases, the compounds were used at the same concentrations previously used in cell cycle studies (Table 5).
(§2) MCF7, SKOV-3, and HeLa apoptotic cells were quantified using an Annexin V-FITC/PI apoptosis detection kit (Immunostep, Salamanca, Spain) according to the manufacturer’s guidelines. 1.5 mL/well of cells in the exponential growth phase at 2·10^4 cells/mL were seeded onto 12-well plates and left to attach overnight. After 24 h incubation, cells were treated with selected compounds. After 72 h (MCF7, SKOV-3, and HeLa) and 6 days (MCF7) post-treatment, attached and floating cells of treated and untreated wells were collected, centrifuged, resuspended in Annexin V binding buffer, and stained with Annexin V-FITC/PI. Cells were then incubated in darkness at room temperature for 15 min and a total of 30,000 cells were acquired and analyzed using the BD Accuri™ C6 Plus Flow Cytometer and Software (version 1.0.264.21, BD Biosciences, San José, CA, USA), respectively. Compounds were dissolved in DMSO and the final solvent concentration never exceeded 0.5% (v/v). Control wells included cells with 0.5% (v/v) DMSO.

[1] = system: OVCAR-3 ovarian carcinoma cells; assay: Antiproliferative activity against OVCAR-3 (MTT); format: cell-based; conditions: Homo sapiens, 72 h
Experimental: (§3) The in vitro antiproliferative activity of compounds 38, 42, and 45 against a panel of five human ovarian carcinoma cell lines (SKOV3, IGROV-1, A2780, OVCAR-8, and OVCAR-3) was evaluated by a colorimetric method (Table 3) and compared with paclitaxel. […] For SKOV3, the potency reduction observed for paclitaxel together with a sustained or improved (42 with a 7 nM IC50 value) potency for MDS results in a more favorable profile of the MDS compared to paclitaxel.
MCF7 (human breast carcinoma), SKOV-3 (human ovarian carcinoma), OVCAR-3 (human ovarian carcinoma), OVCAR-8 (human ovarian carcinoma), and HeLa (human cervical carcinoma) cell lines were cultured in Dulbecco’s Modified Eagle’s Medium (DMEM) (Gibco, Thermo Fischer Scientific) containing 10% (v/v) heat-inactivated fetal bovine serum (HIFBS) (Lonza-Cambrex, Karlskoga, Sweden), 2 mM L-glutamine (Lonza-Cambrex, Karlskoga, Sweden), 100 μg/mL streptomycin, and 100 IU/mL penicillin (Lonza-Cambrex) at 37 °C in humidified 95% air and 5% CO2. […]
(§4) MCF7, HeLa, and HT-29 cell proliferation, when treated with the corresponding compounds, were determined using the XTT (sodium 3’-[1(phenylaminocarbonyl)-3,4-tetrazolium]-bis(4-methoxy-6-nitro)-benzenesulfonic acid hydrate) cell proliferation kit (Roche Molecular Biochemicals, Mannheim, Germany). […] The absorbance of the formazan product generated was measured at 450 nm using a multi-well plate reader. SKOV-3, OVCAR-3, OVCAR-8, IGROV-1, A-2780 cell proliferation, when treated with the corresponding compound, were determined using MTT (3-(4,5-dimethylthiazol-2-yl)-2,5-diphenyl-2H-tetrazolium bromide) (Sigma-Aldrich, St. Louis, MO, USA). […] Absorbance was measured at 570 nm in a plate reader (Ultra Evolution, Tecan, Männedorf, Suiza). […] After 24 h incubation, to allow cells to attach to the plates, all compounds were added at 1 µM concentration and the effect on the proliferation was evaluated 72 h post-treatment. […]

[2] = system: IGROV-1 ovarian carcinoma cells; assay: Antiproliferative activity against IGROV-1 (MTT); format: cell-based; conditions: Homo sapiens, 72 h
Experimental: as §3
MCF7 (human breast carcinoma), SKOV-3 (human ovarian carcinoma), OVCAR-3 (human ovarian carcinoma), OVCAR-8 (human ovarian carcinoma), and HeLa (human cervical carcinoma) cell lines were cultured in Dulbecco’s Modified Eagle’s Medium (DMEM) (Gibco, Thermo Fischer Scientific) containing 10% (v/v) heat-inactivated fetal bovine serum (HIFBS) (Lonza-Cambrex, Karlskoga, Sweden), 2 mM L-glutamine (Lonza-Cambrex, Karlskoga, Sweden), 100 μg/mL streptomycin, and 100 IU/mL penicillin (Lonza-Cambrex) at 37 °C in humidified 95% air and 5% CO2. HT-29 (human colon carcinoma), IGROV-1 (human ovarian carcinoma), and A2780 (human ovarian carcinoma) cell lines were cultured in RPMI 1640 medium (Gibco, Thermo Fischer Scientific) supplemented with 10% HIFBS, 100 μg/mL streptomycin, and 100 IU/mL penicillin at 37 °C in humidified 95% air and 5% CO2 atmosphere. The presence of mycoplasma was routinely checked with MycoAlert kit (Lonza-Cambrex) and only mycoplasma-free cells were used in the experiments. Ovarian tumor cell lines were originally acquired from Dr Atanasio Pandiella from Centro de Investigación del Cáncer (CIC), Salamanca, Spain. HeLa, HT-29 and MCF7 tumor cell lines were provided by Dr Faustino Mollinedo from Centro de Investigaciones Biológicas Margarita Salas, Madrid, Spain.
as §4

MCF7 cells = assay: Annexin V-FITC/PI cell death quantification in MCF7; format: cell-based, human; conditions: 38 600 nM, 42 50 nM, 45 400 nM; for Annexin V-FITC/PI 72 h EA (early apoptosis) / Annexin V-FITC/PI 72 h LA (late apoptosis) / Annexin V-FITC/PI 72 h Live / Annexin V-FITC/PI 72 h Necrosis / Annexin V-FITC/PI 6 Days EA (early apoptosis) / Annexin V-FITC/PI 6 Days LA (late apoptosis) / Annexin V-FITC/PI 6 Days Live / Annexin V-FITC/PI 6 Days Necrosis: CA-4 50 nM; for Annexin V-FITC/PI 6 Days EA (early apoptosis) / Annexin V-FITC/PI 6 Days LA (late apoptosis) / Annexin V-FITC/PI 6 Days Live / Annexin V-FITC/PI 6 Days Necrosis: MCF7, 6 days
Experimental: as §1, §2

| Structure (SMILES) | Annexin V-FITC/PI 72 h EA (early apoptosis) (HeLa cells) [%] | Annexin V-FITC/PI 72 h LA (late apoptosis, double-positives) (HeLa cells) [%] | Annexin V-FITC/PI 72 h Necrosis (HeLa cells) [%] | pIC50 [1] | pIC50 [2] | Phosphatidylserine exposure (Annexin V-positive MCF7 cells) (MCF7 cells; MCF7, 72 h) [%] | Annexin V-FITC/PI 72 h EA (early apoptosis) (MCF7 cells; MCF7, 72 h) | Annexin V-FITC/PI 72 h LA (late apoptosis) (MCF7 cells; MCF7, 72 h) [%] | Annexin V-FITC/PI 72 h Live (MCF7 cells; MCF7, 72 h) | Annexin V-FITC/PI 72 h Necrosis (MCF7 cells; MCF7, 72 h) [%] | Annexin V-FITC/PI 6 Days EA (early apoptosis) (MCF7 cells) | Annexin V-FITC/PI 6 Days LA (late apoptosis) (MCF7 cells) [%] | Annexin V-FITC/PI 6 Days Live (MCF7 cells) | Annexin V-FITC/PI 6 Days Necrosis (MCF7 cells) [%] | Annexin V-FITC/PI 72 h EA (early apoptosis) (MCF7 cells; MCF7, 72 h, listed as CA-4) | Annexin V-FITC/PI 72 h Live (MCF7 cells; MCF7, 72 h, listed as CA-4) | Annexin V-FITC/PI 6 Days EA (early apoptosis) (MCF7 cells; listed as CA-4) [%] | Annexin V-FITC/PI 6 Days Live (MCF7 cells; listed as CA-4) [%] |
| --- | --- | --- | --- | --- | --- | --- | --- | --- | --- | --- | --- | --- | --- | --- | --- | --- | --- | --- |
| COc1ccc(S(=O)(=O)N(C)c2cc(OC)c(OC)c(OC)c2)cc1N [Compound 42] | 1.4 | 82.0 | 9.4 | 7.14 | 6.40 | 11 | 9% and 8.5% | 2.3 | 88% and 87.7% | 1.4 | 19% and 18.9% | 1.7 | 79% and 79.1% | 0.3 |  |  |  |  |
| COc1ccc(/C=C\c2cc(OC)c(OC)c(OC)c2)cc1O [Combretastatin A-4, reference compound] |  |  |  |  |  |  |  | 3.3 |  | 6.7 |  | 2.7 |  | 0.4 | 32% and 31.7% | 58% and 58.3% | 52.4 | 44.5 |
| CNc1ccc(S(=O)(=O)N(C)c2cc(OC)c(OC)c(OC)c2)cc1 [Compound 38] | 1.1 | 87.6 | 10.6 | 7.51 | 6.61 |  | 29% | 5.4 | 60% and 60.5% | 5.1 | 45.0% | 2.7 | 52.0% | 0.3 |  |  |  |  |
| COc1ccc(S(=O)(=O)N(Cc2ccccc2)c2cc(OC)c(OC)c(OC)c2)cc1N [Compound 45] | 1.5 | 84.9 | 12.7 | 7.24 | 6.31 |  | 20% and 20.1% | 7.5 | 71% and 70.5% | 1.9 | 39.3% | 3.8 | 56.7% | 0.3 |  |  |  |  |
